Test results reported in US12661338B2, “Heterocyclic compounds as modulators of beta-catenin / TCF4 interaction” (AGENCY FOR SCIENCE, TECHNOLOGY AND RESEARCH, priority 2019, dated 2026).

Key:
Format in all cases: cell-based
[1] = tested on: Hippo pathway TEAD reporter cells; assay: Hippo signalling TEAD reporter dose response; settings: 24 hr, inhibition of the Hippo pathway, read-out: IC50 Hippo
Experimental: The Hippo TEAD reporter cells were seeded as 100,000 cells in 100 μL assay medium per well in 96-well plates (Corning cat. #3903, Falcon cat. #353072). The assay medium consists of the growth medium without G-418. The next day, 5-fold dilutions of the compounds in DMSO were added to the cells at a final concentration of 1% DMSO. After 24 hr incubation, the viability of the cells was determined with CCK-8 cell viability reagent while the luciferase reporter activity was determined with Steady-Glo luciferase reagent.
The average signal from DMSO treated wells was calculated for each plate, and the signal from each treatment well was normalized against the average DMSO signal from the respective plate. The normalized values were plotted against the concentrations tested using GraphPad Prism 5, and the EC50 values were determined through either three- or four-parameter nonlinear regression.

β-cat-TCF4 interaction = target: T1, β-cat-TCF4 interaction (Homo sapiens, UniProt P35222, DEL45-45); assay: Co-immunoprecipitation of β-cat and TCF4 in HCT116 cells; settings: 18 hr
T1 construct: endogenous in cells; host or cells: HCT116
T1 sequence (P35222 with tags, fused parts or gaps DEL45-45): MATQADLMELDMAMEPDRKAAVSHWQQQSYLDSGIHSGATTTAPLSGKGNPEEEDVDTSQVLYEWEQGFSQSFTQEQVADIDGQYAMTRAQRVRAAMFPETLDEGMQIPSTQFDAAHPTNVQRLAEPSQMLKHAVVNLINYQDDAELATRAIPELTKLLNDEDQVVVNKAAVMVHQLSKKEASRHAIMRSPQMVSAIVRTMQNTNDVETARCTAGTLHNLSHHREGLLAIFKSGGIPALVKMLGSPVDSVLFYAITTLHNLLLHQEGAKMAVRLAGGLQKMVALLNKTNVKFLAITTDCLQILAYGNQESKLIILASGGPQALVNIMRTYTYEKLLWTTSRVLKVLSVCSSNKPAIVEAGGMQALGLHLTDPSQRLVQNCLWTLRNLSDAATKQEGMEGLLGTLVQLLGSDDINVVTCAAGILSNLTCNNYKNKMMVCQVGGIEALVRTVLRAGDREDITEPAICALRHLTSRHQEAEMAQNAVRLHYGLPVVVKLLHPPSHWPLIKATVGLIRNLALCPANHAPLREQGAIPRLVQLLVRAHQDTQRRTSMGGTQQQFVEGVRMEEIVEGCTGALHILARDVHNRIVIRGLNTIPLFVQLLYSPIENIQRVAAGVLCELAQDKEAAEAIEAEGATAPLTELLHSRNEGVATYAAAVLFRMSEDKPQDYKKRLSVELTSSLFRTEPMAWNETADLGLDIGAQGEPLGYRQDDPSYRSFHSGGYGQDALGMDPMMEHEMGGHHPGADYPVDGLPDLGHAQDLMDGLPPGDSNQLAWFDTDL
Experimental: (§1) HCT116 cells were treated for 18 hr with compounds at the indicated concentrations. Cells were lysed on ice in lysis buffer containing 20 mM HEPES, pH 7.5, 137 mM NaCl, 1.5 mM MgCl2, 1 mM EGTA, 1 mM dithiothreitol (DTT), 1% Triton X-100, 10% glycerol, cOmplete protease inhibitor cocktail (Roche cat. #11697498001), and 1 mM Na3VO4. Each sample of cleared protein lysate was incubated overnight at 4° C. with 4 μg anti-β-cat antibody (Sigma cat. #C7207) followed by 1 hr incubation with a 50 μL slurry of Dynabeads Protein G (Invitrogen cat. #10004D) at 4° C. The beads were then washed three times with lysis buffer at 4° C., and the bound protein was eluted by heating the beads with 30 μL (per sample) of SDS sample buffer at 95° C. for 7 min. protein was resolved by SDS-PAGE and blotted onto PVDF membrane (Millipore cat. #IPVH00010). Primary antibodies were incubated overnight at 4° C. and the blots were detected with either IRDye 800CW goat anti-rabbit antibody (LI-COR cat. #926-32211) or IRDye 680RD goat anti-mouse antibody (LI-COR cat. #926-68070) at 1:5000 dilution. Signals were visualized with the LI-COR Odyssey CLx imaging system and bands were quantified using LI-COR Image Studio data analysis software. […]

β-cat-ECAD interaction = assay: Co-immunoprecipitation of β-cat and ECAD in HCT116 cells; settings: 18 hr
Experimental: as §1

[2] = tested on: Wnt target proteins in HCT116 cells; assay: Western blotting of Wnt target and Wnt pathway proteins in HCT116 cells; settings: 50 μM, 18 hr
Experimental: HCT116 cells were treated with compounds for 18 hr at a final concentration of 50 μM, 1% DMSO. Cells were lysed on ice in RIPA buffer (Thermo cat. #89900) containing cOmplete™ protease inhibitor cocktail (Roche cat. #11697498001) and PhosSTOP phosphatase inhibitor cocktail (Roche cat. #04906837001). 30 μg per sample of total cellular protein was resolved by SDS-PAGE and blotted onto PVDF membrane (Millipore cat. #IPVH00010). Primary antibodies were incubated overnight at 4° C. and the blots were detected with either IRDye 800CW goat anti-rabbit antibody (LI-COR cat. #926-32211) or IRDye 680RD goat anti-mouse antibody (LI-COR cat. #926-68070) at 1:5000 dilution. Signals were visualized with the LI-COR Odyssey CLx imaging system and bands were quantified using LI-COR Image Studio data analysis software. The primary antibodies used were Met (Cell Signalling Technology cat. #8198, 1:1000), cyclin D1 (Cell Signalling Technology cat. #2978, 1:1000), survivin (Santa Cruz cat. #sc-10811, 1:500), ECAD (Cell Signalling Technology cat. #3195, 1:1000), TCF4/TCF7L2 (Cell Signalling Technology cat. #2569, 1:1000), β-cat (Cell Signalling Technology cat. #8480, 1:1000), β-actin (Abcam cat. #ab8226, 1:3000).

HCT116 cells [3] = assay: Proliferation assay (CellTiter-Glo); settings: 10 μM daily
Experimental: HCT 116 cells were seeded as 3,000 cells in 100 μL growth medium per well in 96-well plates (Corning cat. #3903) and allowed to attached overnight. Cells were then treated continuously with compounds at a final concentration of 10 μM, 0.1% DMSO, for 4 days with daily medium change. Cell proliferation each day was determined using CellTiter-Glo luminescent cell viability assay (Promega cat. #G7573) according to the manufacturer's protocol.

HCT116 cells [4] = assay: Colony formation assay; settings: HCT116, 30 μM, 7 days
Experimental: FIG. 4 depicts the inhibit growth by hit compounds and their effects on stemness of Wnt driven cells. (FIG. 4A) Growth curves of HCT116 cells treated daily with compounds at 10 μM. One-way repeated measures ANOVA with Dunnett's multiple comparison test was carried out to determine the significance between compound treatment and DMSO control. *P<0.05, ***P<0.001. (FIG. 4B) Effects of hit compounds on colony formation of HCT116 cells. HCT116 cells were grown in 6-well plates and treated with either DMSO or the compounds at 30 μM for 7 days, following which the cells were fixed and stained with crystal violet. The number of colonies obtained were counted. Two-tailed Student's t-test was carried out between compound treatment and DMSO control. ***P<0.001. (FIG. 4C) Effects of hit compounds on spheroid formation of HCT116 cells. HCT116 cells were grown in ultra-low attachment 96-well plates and treated with either DMSO or the compounds at 30 µM for 14 days, following which the number of spheroids ≥200 μm in size was determined. Two-tailed Student's t-test was carried out between compound treatment and DMSO control. ***P<0.001, **P<0.01. Scale bar represents 1 mm. (FIG. 4D) NSG mice xenografted with HCT116 cells were treated with vehicle control (n=6) or 50 mg/kg GB1874 (n=6) via i.p. every other day for 2 weeks. Tumor volumes were monitored over time. […]

CRC1707 = assay: Viability of primary patient-derived colorectal cancer cell line
CRC1775 = assay: as above
CRC1846 = assay: as above
CRC1850 = assay: as above; settings: CRC1850, Liver Met

`CCc1ccc(OCc2nnc(SC3CCCC3=O)n2C(C)c2ccccc2)cc1` (centres unmarked) [GB1874] was tested, and the IC50 [1] was over 100 µM, the “β-cat-TCF4 interaction (co-IP)” value (β-cat-TCF4 interaction) was “reduce the β-cat-TCF4 interaction to the same extent as iCRT3” and the “β-cat-ECAD interaction (co-IP)” value (β-cat-ECAD interaction) was “minimal effect on the β-cat-ECAD interaction”. The “expression of Wnt target genes c-Met, cyclin D1 and survivin (Western blotting)” value [2] was “most effective at reducing the expression of these proteins”, the “expression of β-cat, ECAD and TCF4 (Western blotting)” value [2] was “minimal effect on the expression of β-cat itself, or the expression of its partner proteins, such as ECAD and TCF4” and the “growth of HCT116 cells” value (HCT116 cells [3]) was “effectively inhibited the growth of HCT116 cells”. For the same compound, the colony forming efficiency (HCT116 cells [4]) was “markedly reduce survival of the cancer stem-like cells”, the EC50 (CRC1707) was 19 µM and the EC50 (CRC1775) was 74 µM. It also gave an EC50 (CRC1846) of 17 µM and an EC50 (CRC1850) of 37 µM.
